Assay results: patent EP0973746B1, “SUBSTITUTED 3-CYANO QUINOLINES” (Wyeth Holdings Corporation, priority 1997, dated 1998)
Values after ≈ are worked out from the molar mass of the structure shown. Values joined by “and” are separate entries in the source; they are usually repeats but may differ in a detail not shown here. Equal entries are not always repeated. Where two headings read alike, the source gives them in different places.

Assays:
SW620 = assay: Inhibition of cancer cell growth as measured by cell number, SW620; format: cell-based, human; conditions: Homo sapiens, SW-620, 48 h;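 further: SW620 was included as a cell line with little or no EGFR or HER2/neu expression, in contrast to receptor-overexpressing lines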
Source text: (§1) The cell lines were chosen since they overexpressed epidermal growth factor receptor (EGFR) (i.e. A431) or HER2/neu (SKBR3), or had little to no expression of the these receptors (SW620, LOX, MCF7).

MCF7 = assay: Inhibition of cancer cell growth as measured by cell number, MCF7; format: cell-based, human; conditions: Table 8; for IC50: Homo sapiens, MCF7, 48 h;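 on all read-outs here: MCF7 was included as a line with little or no EGFR or HER2/neu expression, in contrast to the receptor-overexpressing lines of the panel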
Source text: as §1

LOX = assay: Inhibition of cancer cell growth as measured by cell number, LOX; format: cell-based, human; conditions: Table 8; for IC50: Homo sapiens, LOX, 48 h;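 on all read-outs here: LOX cells served as a line with low or absent EGFR and HER2/neu expression, in contrast to receptor-overexpressing lines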
Source text: as §1

A431 = assay: Inhibition of cancer cell growth as measured by cell number, A431; format: cell-based, human; conditions: Table 8; for IC50: Homo sapiens, A-431, 48 h;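 on all read-outs here: human A431 line, picked because it overexpresses epidermal growth factor receptor (EGFR)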
Source text: as §1

SKBR3 = assay: Inhibition of cancer cell growth as measured by cell number, SKBR3; format: cell-based, human; conditions: Homo sapiens, Table 8;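 further: SK-BR-3 cells were selected as a line overexpressing HER2/neu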
Source text: as §1

[1] = target: recombinant human MEK 1 (MAPKK) and recombinant human ERK2 (MAPK); assay: Mitogen Activated Protein Kinase (MAPK) assay, two component coupled MEK 1 / ERK2; format: biochemical; conditions: separate entries for the same compound = evaluated more than one time;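 further: MEK 1-activated ERK2 phosphorylates MBP or Myc peptide with 33P-ATP, filter capture and scintillation counting, inhibitor preincubated with ERK2 30 min at 0 °C, inhibition relative to uninhibited control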
[2] = target: T1, His-tagged cytoplasmic domain of EGFR (Homo sapiens, UniProt P00533); assay: Inhibition of Epidermal Growth Factor Receptor Kinase (EGF-R) using recombinant enzyme; format: biochemical; conditions: recombinant enzyme; RR-SRC peptide; average of the number of tests; read-out: IC50;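 further: radiometric kinase assay measuring radiolabeled phosphate transfer from ATP onto the peptide tyrosine by scintillation counting, control is reaction without compound, background subtracted, IC50 from dose-response curve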
T1 construct: containing the EGFR cDNA encoding amino acids 645 - 1186 preceded by Met-Ala-(His)6; made in house; host or cells: Sf9 cells, recombinant baculovirus vHcEGFR52
T1 sequence (P00533 669-1210): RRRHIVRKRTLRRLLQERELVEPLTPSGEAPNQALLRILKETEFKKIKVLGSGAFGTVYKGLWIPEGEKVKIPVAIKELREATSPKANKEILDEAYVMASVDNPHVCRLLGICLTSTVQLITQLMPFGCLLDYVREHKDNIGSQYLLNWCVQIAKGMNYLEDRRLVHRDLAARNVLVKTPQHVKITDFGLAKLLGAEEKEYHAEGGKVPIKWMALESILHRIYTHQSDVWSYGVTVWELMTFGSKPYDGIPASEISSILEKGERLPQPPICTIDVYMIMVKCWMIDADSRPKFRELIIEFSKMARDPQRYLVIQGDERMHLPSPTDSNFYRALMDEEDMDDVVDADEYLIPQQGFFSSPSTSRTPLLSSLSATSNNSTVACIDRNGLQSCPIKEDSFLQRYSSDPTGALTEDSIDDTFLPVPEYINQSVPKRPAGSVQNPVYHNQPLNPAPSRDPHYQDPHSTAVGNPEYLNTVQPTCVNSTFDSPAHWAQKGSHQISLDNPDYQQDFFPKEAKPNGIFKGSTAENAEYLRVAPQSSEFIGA

[3] = read-out: IC50 SW620, cell number, Sulforhodamine B, 48 hours exposure, Table 8
[4] = read-out: IC50 MCF7, cell number, Sulforhodamine B, 48 hours exposure
[5] = read-out: IC50 LOX, cell number, Sulforhodamine B, 48 hours exposure
[6] = read-out: IC50 A431, cell number, Sulforhodamine B, 48 hours exposure
[7] = SK-BR-3, 48 h, read-out: IC50 SKBR3, cell number, Sulforhodamine B, 48 hours exposure
[8] = cell number, Sulforhodamine B, 48 hours exposure, Table 8, read-out: IC50 SW620
[9] = cell number, Sulforhodamine B, 48 hours exposure, read-out: IC50 MCF7
[10] = cell number, Sulforhodamine B, 48 hours exposure, read-out: IC50 LOX
[11] = cell number, Sulforhodamine B, 48 hours exposure, read-out: IC50 A431
[12] = SK-BR-3, cell number, Sulforhodamine B, 48 hours exposure, read-out: IC50 SKBR3
[13] = cell number, Sulforhodamine B, 48 hours exposure

Structure (SMILES)	IC50 (SW620; [3])	IC50 (MCF7; [4])	IC50 (LOX; [5])	IC50 (A431; [6])	IC50 (SKBR3; [7])	IC50 [1]	further results
C#Cc1cccc(Nc2c(C#N)cnc3ccc(N)cc23)c1 [Example 167, 6-Amino-4-[(3-ethynylphenyl)amino]-3-quinolinecarbonitrile]	8.1 µg/mL (≈ 28.5 µM)	8.5 µg/mL (≈ 29.9 µM)	5.3 µg/mL (≈ 18.6 µM)	2.6 µg/mL (≈ 9.14 µM)	3.7 µg/mL (≈ 13 µM)	> 100 µM	
N#Cc1cccc(Nc2c(C#N)cnc3ccc([N+](=O)[O-])cc23)c1 [Example 163, 4-[(3-Cyanophenyl)amino]-6-nitro-3-quinolinecarbonitrile]	47.3 µg/mL (≈ 150 µM)	17.4 µg/mL (≈ 55.3 µM)	64.2 µg/mL (≈ 204 µM)	7.02 µg/mL (≈ 22.3 µM)	7.28 µg/mL (≈ 23.1 µM)	> 100 µM	
C#Cc1cccc(Nc2c(C#N)cnc3ccc([N+](=O)[O-])cc23)c1 [Example 168, 4-[(3-Ethynylphenyl)amino]-6-nitro-3-quinolinecarbonitrile]	9.1 µg/mL (≈ 29 µM)	5.94 µg/mL (≈ 18.9 µM)	1.76 µg/mL (≈ 5.6 µM)	1.57 µg/mL (≈ 5 µM)	1.38 µg/mL (≈ 4.39 µM)	80 µM	
CC#CC(=O)Nc1ccc2ncc(C#N)c(Nc3cccc(N(C)C)c3)c2c1 [Example 393, But-2-ynoic Acid [3-Cyano-4-(3-dimethylaminophenylamino)quinolin-6-yl]amide]						40 µM	IC50 (SW620; [8]): 2.25 µg/mL (≈ 6.09 µM); IC50 (MCF7; [9]): 4 µg/mL (≈ 10.8 µM); IC50 (LOX; [10]): 0.85 µg/mL (≈ 2.3 µM); IC50 (A431; [11]): 0.45 µg/mL (≈ 1.22 µM); IC50 (SKBR3; [12]): 0.84 µg/mL (≈ 2.27 µM)
COCCOc1cc2ncc(C#N)c(Nc3cccc(Br)c3)c2cc1OCCOC [Example 311, 4-[(3-Bromophenyl)amino]-6,7-bis(2-methoxyethoxy)-3-quinolinecarbonitrile]	1 µg/mL (≈ 2.12 µM)		2.8 µg/mL (≈ 5.93 µM)		0.7 µg/mL (≈ 1.48 µM)	2 µM and 2.5 µM	
CCOc1cc2ncc(C#N)c(N(C)c3ccccc3)c2cc1OCC [Example 258, 4-(N-Methylphenylamino)-6,7-diethoxy-3-quinolinecarbonitrile]		7.87 µg/mL (≈ 22.7 µM)	6.12 µg/mL (≈ 17.6 µM)	4.67 µg/mL (≈ 13.4 µM)			IC50 MCF7 (MCF7; [13]): 9.69 µg/mL (≈ 27.9 µM); IC50 LOX (LOX; [13]): 10.72 µg/mL (≈ 30.9 µM); IC50 A431 (A431; [13]): 5.42 µg/mL (≈ 15.6 µM)
CC(C)(C)[Si](C)(C)OCC#CC(=O)Nc1ccc2ncc(C#N)c(Nc3cccc(Br)c3)c2c1 [Example 331, N-[4-[(3-Bromophenyl)amino]-3-cyano-6-quinolinyl]-4-t-butyldimethylsiloxy-2-butynamide]							IC50 (SW620; [8]): 0.04 µg/mL (≈ 0.0747 µM); IC50 (MCF7; [9]): 0.44 µg/mL (≈ 0.822 µM); IC50 (LOX; [10]): 0.04 µg/mL (≈ 0.0747 µM); IC50 (A431; [11]): 0.03 µg/mL (≈ 0.056 µM); IC50 (SKBR3; [12]): 0.16 µg/mL (≈ 0.299 µM)
CN(C)Cc1cc([N+](=O)[O-])cc2c(Nc3cccc(Br)c3)c(C#N)cnc12 [Example 108, 4-[(3-Bromophenyl)amino]-8-dimethylaminomethyl-6-nitro-3-quinolinecarbonitrile]	14.6 µg/mL (≈ 34.1 µM)	7.97 µg/mL (≈ 18.7 µM)	6.85 µg/mL (≈ 16.1 µM)	6.6 µg/mL (≈ 15.5 µM)	6.34 µg/mL (≈ 14.9 µM)	> 100 µM	
CC#CC(=O)Nc1cc(CN(C)C)c2ncc(C#N)c(Nc3cccc(Br)c3)c2c1 [Example 110, N-{4-[(3-Bromophenyl)amino]-3-cyano-8-dimethylaminomethyl-6-quinolinyl} -2-butynamide]	0.7 µg/mL (≈ 1.51 µM)		0.8 µg/mL (≈ 1.73 µM)	0.9 µg/mL (≈ 1.95 µM)	1.3 µg/mL (≈ 2.81 µM)	40 µM	
CCOc1cc2ncc(C#N)c(Nc3cccc(F)c3)c2cc1OCC [Example 263, 4-(3-Fluorophenylamino)-6,7-diethoxy-3-quinolinecarbonitrile]						80 µM	IC50 (SW620; [8]): 5.79 µg/mL (≈ 16.5 µM); IC50 (MCF7; [9]): 8.44 µg/mL (≈ 24 µM); IC50 (LOX; [10]): 5.66 µg/mL (≈ 16.1 µM); IC50 (A431; [11]): 6.9 µg/mL (≈ 19.6 µM); IC50 (SKBR3; [12]): 7.5 µg/mL (≈ 21.3 µM)
CCOc1cc2ncc(C#N)c(Nc3ccc(F)cc3)c2cc1OCC [Example 260, 4-(4-fluorophenylamino)-6,7-diethoxy-3-quinolinecarbonitrile]	0.32 µg/mL (≈ 0.911 µM)	9.98 µg/mL (≈ 28.4 µM)	0.26 µg/mL (≈ 0.74 µM)	0.06 µg/mL (≈ 0.171 µM)	0.08 µg/mL (≈ 0.228 µM)	55 µM	
COCC=CC(=O)Nc1ccc2ncc(C#N)c(Nc3cccc(Br)c3)c2c1 [Example 65, 4-Methoxy-but-2-enoic acid [4-(3-bromo-phenylamino)-3-cyano-quinolin-6-yl]-amide]	> 100 µg/mL	84 µg/mL (≈ 192 µM)	84 µg/mL (≈ 192 µM)	48 µg/mL (≈ 110 µM)	60 µg/mL (≈ 137 µM)	40 µM	
CCOc1cc2ncc(C#N)c(Nc3ccc(Sc4ccccc4)c(Cl)c3)c2cc1OCC [Example 254, 4-[3-Chloro-4-(phenylthio)phenylamino]-6,7-diethoxy-3-quinolinecarbonitrile]	0.03 µg/mL (≈ 0.063 µM)	0.07 µg/mL (≈ 0.147 µM)	0.07 µg/mL (≈ 0.147 µM)	0.07 µg/mL (≈ 0.147 µM)	0.01 µg/mL (≈ 0.021 µM)		
CCN1CCN(CC#CC(=O)Nc2ccc3ncc(C#N)c(Nc4cccc(Br)c4)c3c2)CC1 [Example 188, N-[4-[(3-Bromophenyl)amino]-3-cyano-6-quinolinyl]-4-(N-ethylpiperazino)-2-butynamide]		1.43 µg/mL (≈ 2.76 µM)		0.54 µg/mL (≈ 1.04 µM)			IC50 [2]: 0.001 µM; IC50 MCF7 (MCF7; [13]): 0.8 µg/mL (≈ 1.55 µM); IC50 A431 (A431; [13]): 0.4 µg/mL and 0.579 µg/mL
N#Cc1cccc(Nc2c(C#N)cnc3ccc(N)cc23)c1 [Example 162, 6-Amino-4-[(3-cyanophenyl)amino]-3-quinolinecarbonitrile]	33.5 µg/mL (≈ 118 µM)	16.4 µg/mL (≈ 57.3 µM)	8.13 µg/mL (≈ 28.5 µM)	6.87 µg/mL (≈ 24.1 µM)	7.15 µg/mL (≈ 25.1 µM)	35 µM	
CN(C)Cc1cc(N)cc2c(Nc3cccc(Br)c3)c(C#N)cnc12 [Example 109, 6-Amino-4-[(3-bromophenyl)amino]-8-dimethylaminomethyl-3-quinolinecarbonitrile]	40.8 µg/mL (≈ 103 µM)	37.9 µg/mL (≈ 95.7 µM)	35.1 µg/mL (≈ 88.5 µM)	38.9 µg/mL (≈ 98 µM)	30.7 µg/mL (≈ 77.4 µM)		
C=CC(=O)Nc1ccc2ncc(C#N)c(Nc3cccc(N(C)C)c3)c2c1 [Example 391, N-[3-Cyano-4-(3-dimethylaminophenylamino)quinolin-6-yl]acrylamide]						> 100 µM	IC50 (SW620; [8]): 5.23 µg/mL (≈ 14.6 µM); IC50 (MCF7; [9]): 6.53 µg/mL (≈ 18.3 µM); IC50 (LOX; [10]): 0.1 µg/mL (≈ 0.28 µM); IC50 (A431; [11]): 0.34 µg/mL (≈ 0.951 µM); IC50 (SKBR3; [12]): 0.4 µg/mL (≈ 1.12 µM)
COc1cc2c(Nc3ccc(O)cc3C)c(C#N)cnc2cc1OCCCN1CCOCC1 [Example 312, 4-(4-Hydroxy-2-methyl-phenylamino)-6-methoxy-7-(3-morpholin-4-yl-propoxy)-quinoline-3-carbonitrile]						> 100 µM	IC50 [2]: 0.05 µM; IC50 (SW620; [8]): 3.53 µg/mL (≈ 7.88 µM); IC50 (A431; [11]): 0.491 µg/mL (≈ 1.09 µM); IC50 (SKBR3; [12]): 2.25 µg/mL (≈ 5.03 µM)
N#Cc1cnc2ccc(N)cc2c1Nc1ccc(F)c(F)c1 [Example 155, 6-Amino-4-[(3.4-difluorophenyl)amino]-3-quinolinecarbonitrile]	7.55 µg/mL (≈ 25.5 µM)	7.49 µg/mL (≈ 25.3 µM)	6.08 µg/mL (≈ 20.5 µM)	4.3 µg/mL (≈ 14.5 µM)	3.28 µg/mL (≈ 11.1 µM)		
N#Cc1cnc2ccc(N)cc2c1Nc1ccc(Sc2ccccc2)c(Cl)c1 [Example 158, 6-Amino-4-[(3-chloro-4-thiophenoxyphenyl)amino]-3-quinolinecarbonitrile]	4.08 µg/mL (≈ 10.1 µM)	5.44 µg/mL (≈ 13.5 µM)	2.44 µg/mL (≈ 6.06 µM)	2.97 µg/mL (≈ 7.37 µM)	0.8 µg/mL (≈ 1.99 µM)		
C=CC(=O)Nc1ccc2ncc(C#N)c(Nc3ccc(N(C)C)cc3)c2c1 [Example 392, N-[3-Cyano-4-(4-dimethylaminophenylamino)quinolin-6-yl]acrylamide]						40 µM	IC50 (SW620; [8]): 73.3 µg/mL (≈ 205 µM); IC50 (MCF7; [9]): 3.66 µg/mL (≈ 10.2 µM); IC50 (LOX; [10]): 1.99 µg/mL (≈ 5.57 µM); IC50 (A431; [11]): 0.46 µg/mL (≈ 1.29 µM); IC50 (SKBR3; [12]): 2.61 µg/mL (≈ 7.3 µM)
COc1cc2ncc(C#N)c(Nc3cccc(F)c3)c2cc1OC [Example 35, 4-[(3-Fluorophenyl)amino]-6,7-dimethoxy-3-quinolinecarbonitrile]	6.4 µg/mL (≈ 19.8 µM)	40.9 µg/mL (≈ 126 µM)			0.93 µg/mL (≈ 2.88 µM)		IC50 (SW620; read-out: IC50 SW620, cell number, Sulforhodamine B, 48 hours exposure, Table 4): 9.57 µg/mL (≈ 29.6 µM)
